The record followed here is patent publication US12152012B2, “BRAG2 inhibitors and applications thereof” (CENTRE NATIONAL DE LA RECHERCHE SCIENTIFIQUE, priority 2018, dated 2024).

The subject of series [1] is TGN46 (trans-Golgi network marker) in Hela cells. The experiment in a line: Immunostaining and confocal microscopy of Hela cells. The series is classed as cell-based, human. The conditions noted are these: for Reversibility of TGN46 dispersion / Dispersion of TGN46 marker: Hela cells; for Reversibility of TGN46 dispersion: 50 μM 30 min, then 30 min in fresh medium; for Dispersion of TGN46 marker: 50 μM, 30 min; for Rescue of compound-induced TGN46 dispersion by constitutively active Arf1, Arf5, Arf6 Q/L-mCherry: transfected Hela cells. As to the method:
(§1) FIG. 1. Bragsin2 affects Arf pathways in cells • a. Chemical structures of Bragsin1 and Bragsin2 and derivatives used in this study. Chemical synthesis and structural characterization of the compounds are described in example 6. • b. Bragsin2 disperses the TGN46 and GM130 markers. HeLa cells were treated with either DMSO (0.25%) or Bragsin2 (50 μM) for 30 min, immunostained for TGN46, GM130 or EEA1 (green channel) and analysed by confocal microscopy. Dispersion of GM130 and TGN46 by Bragsin2 is reversible. Hela cells were treated as in FIG. 1a and were incubated for an additional 30 min in fresh medium (wash panel) prior to immunostaining and confocal microscopy analysis. Expression of Arf-mCherry constructs carrying an activating mutation rescues the effect of Bragsin2. Hela cells were transfected with constitutively active Q/L mutants of Arf-mCherry. Note the difference between non-transfected cells (white asterisk) and transfected cells. Scale bars, 10 μm.
(§2) Hela cells were grown in Dulbecco's modified Eagle's medium supplemented with Glutamax™ and 10% fetal bovine serum (Invitrogen). For immunofluorescence studies, cells were grown on Labtek glass slides (Nunc) and transfected for 18 to 24 h using Lipofectamine 2000 (Invitrogen), according to the supplier's instructions. When specified, cells were treated with the indicated concentration of small molecule or corresponding volume of vehicle (DMSO) in growth medium for 30 min at 37° C.
(§3) Immunostaining procedure was as described in (Viaud, J. et al. Structure-based discovery of an inhibitor of Arf activation by Sec7 domains through targeting of protein-protein complexes. Proc Natl Acad Sci USA 104, 10370-5 (2007)) except that secondary antibody incubation was performed for 1h using Alexa 488-conjugated goat anti-mouse (1:600) or donkey anti-sheep (1:500) IgG and Alexa 647-conjugated phalloidin (1:100). Anti-GM130 was used at dilution 1:200. Images were bidirectionally recorded using an inverted Leica TCS SP8 laser-scanning confocal microscope with a 100× (N. A. 1.40) oil objective (HCX APO, Leica). Fluorochromes were detected sequentially using excitation laser lines at 488 nm (Alexa 488), 594 nm (mCherry) and 633 nm (Alexa 647). Stacks were generated using a z-step of 0.5 μm and processed using Fiji/ImageJ (Schindelin, J. et al. Fiji: an open-source platform for biological-image analysis. Nat Methods 9, 676-82 (2012)). Images are representative of at least two independent experiments.

Series [2] concerns GM130 (cis-Golgi marker) in Hela cells. Described as above. The conditions noted are these: for Reversibility of GM130 dispersion: 50 μM 30 min, then 30 min in fresh medium; for Dispersion of GM130 marker: 50 μM, 30 min. Type of series: cell-based, human. Here is the method: as §1, §2, §3
A short description of series [3]: Stability of DMSO stock solution (1H-NMR). Conditions: kept in DMSO for several months. Type of series: physicochemical.
In series [4] the target is T1, BRAG2 binding to PIP2-containing liposomes (Homo sapiens, UniProt Q6DN90).
T1 construct: human BRAG2^Sec7 (390-594) and BRAG2^Sec7PH (390-811); made in house
T1 sequence (Q6DN90 512-933): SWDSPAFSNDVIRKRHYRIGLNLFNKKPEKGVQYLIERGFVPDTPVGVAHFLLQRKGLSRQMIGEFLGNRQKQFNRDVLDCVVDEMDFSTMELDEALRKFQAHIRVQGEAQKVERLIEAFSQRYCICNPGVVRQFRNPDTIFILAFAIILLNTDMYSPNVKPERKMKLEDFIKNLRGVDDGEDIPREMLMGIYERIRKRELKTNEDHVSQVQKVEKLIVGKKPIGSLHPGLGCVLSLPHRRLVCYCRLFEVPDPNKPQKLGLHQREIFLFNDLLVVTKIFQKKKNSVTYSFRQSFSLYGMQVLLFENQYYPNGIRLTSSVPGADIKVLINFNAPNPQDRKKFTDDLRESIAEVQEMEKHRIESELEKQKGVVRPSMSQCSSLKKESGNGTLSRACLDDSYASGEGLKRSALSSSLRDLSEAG
As to the kind of experiment: Liposome flotation assay. As to the method: FIG. 4. Bragsin is a non-competitive inhibitor of protein-membrane interactions • a. Bragsin1 (in violet) overlaps with the canonical phosphoinositide-binding site of the PH domain of BRAG2. IP3 (in red) is from the GRP1-IP3 complex (DiNitto, J. P. et al. Structural basis and mechanism of autoregulation in 3-phosphoinositide-dependent Grp1 family Arf GTPase exchange factors. Mol Cell 28, 569-83 (2007)). The position of the membrane is indicated by an arrow. • b. […] Binding was measured by liposome flotation. U: bottom fraction, containing unbound proteins; B: top fraction, containing liposome-bound proteins. […] Quantification is shown below. • c. Inhibition of BRAG2 by Bragsin2 is stronger in the presence of liposomes that contain PIP2 lipids. Kinetics were measured as in FIG. 2b.
Bragsin may partially overlap with a lipid bound at this position was predicted by comparison of the PH domain of a cytohesin ArfGEF with a phosphoinositide headgroup bound to the canonical lipid-binding site (DiNitto, J. P. et al. Mol Cell 28, 569-83 (2007))(FIG. 4a). Bragsin inhibition could act by blocking the interaction of BRAG2 with membranes. […] Alternatively, Bragsin may bind at the interface between the PH domain and the membrane if inhibition is sensitive to the lipid composition of the membrane. […]

“Also recorded” adds a separate entry of the source.

`Cc1ccc2oc(C(F)(F)F)cc(=O)c2c1[N+](=O)[O-]` [Bragsin1, 6-methyl-5-nitro-2-(trifluoromethyl)-4H-chromen-4-one]: in series [1], the “Reversibility of TGN46 dispersion” value is “reversible”; the “Dispersion of TGN46 marker” value is recorded as “disperses”; the “Rescue of compound-induced TGN46 dispersion by constitutively active Arf1, Arf5, Arf6 Q/L-mCherry” value is recorded as “rescues”. Also, in series [2], the “Reversibility of GM130 dispersion” value is listed as “reversible” and the “Dispersion of GM130 marker” value is listed as “disperses”. Further, in series [3], the “Stability in DMSO stock solution by 1H-NMR” value is recorded as “completely decomposed”.
Take `COc1ccc2oc(C(F)(F)F)cc(=O)c2c1[N+](=O)[O-]` [Bragsin2, 6-methoxy-5-nitro-2-(trifluoromethyl)-4H-chromen-4-one]: in series [1], the “Reversibility of TGN46 dispersion” value is “reversible”; the “Dispersion of TGN46 marker” value is recorded as “disperses”; the “Rescue of compound-induced TGN46 dispersion by constitutively active Arf1, Arf5, Arf6 Q/L-mCherry” value is given as “rescues”. Also, in series [2], the “Reversibility of GM130 dispersion” value is reported as “reversible” and the “Dispersion of GM130 marker” value is listed as “disperses”. The “Displacement of BRAG2 from PIP2-containing liposomes” value in series [4] is on record as “did not displace; also recorded: does not impair binding”.
